Values of other authors, collected in US8137397B2, “Medical devices” (Boston Scientific Scimed, Inc., priority 2004, dated 2012).

Details: at about room temperature, i.e., about 25° C.; for solubility: in water

solubility	SMILES	solubility in water (in words)
about 0.18 gram/mL of water	OC[C@@H](O)[C@@H](O)[C@H](O)[C@H](O)CO [Mannitol, mannitol]	
	O=C(CO)[C@H](O)[C@@H](O)[C@H](O)CO [Sorbose, sorbose]	freely soluble in water
about 2 gram/mL of water	OC[C@H]1O[C@@](CO)(O[C@H]2O[C@H](CO)[C@@H](O)[C@H](O)[C@H]2O)[C@@H](O)[C@@H]1O [Sucrose, sucrose]	

SMILES	solubility	solubility in water (in words)
[Cl-].[K+] [Potassium chloride, potassium chloride]	about 0.36 gram/mL of water	
